Experimental data: patent US12129264B2, “Crystalline forms of a PAR4 inhibitor” (BRISTOL-MYERS SQUIBB COMPANY, priority 2018, dated 2024)

How the values were obtained:
[1] = Microdissolution of co-crystals versus free form in FaSSIF (pION Microdissolution Profiler); type: physicochemical; settings: for AUC (extent of dissolution), Mean / Dissolution Rate, Mean: FaSSIF pH 6.5, 15 mL at 37° C., 150 rpm, API powder 0.2 mg/mL, N = 4; for AUC (extent of dissolution), Mean: 180 min, trapezoidal rule
Protocol: The dissolution of the N-1 form of the citric acid and the succinic acid co-crystals of the compound of formula (I) were tested against that of the free form of the compound of formula (I). The dissolution properties, rate and extent, and peak solubility were tested in FaSSIF (fasted state simulated intestinal fluid).
This experiment was performed on a pION Microdissolution Profiler™ an API sparing, low volume dissolution instrument with UV fiber optics (UVFO) probes to measure real-time dissolution profile in biorelevant media. The experimental was run under the following conditions: • Apparatus: plon Microdissolution profiler • Media: FaSSIF, pH 6.5 • Volume: 15 mL at 37° C. • Stirring: 150 rpm with small stirrer bar • Dose: API powder at 0.2 mg/mL or 3 mg/vial • Study duration: 180 min
Time points: several time points to capture initial dissolution rate and through 180 min (typical time for absorption)
The results were analyzed using UVFO Analysis: Standard curve range 0-3 μg/mL; 10 mm path length probe windows; detection wavelength 315 nm; slope ˜17 μg/mL/AU; R2=0.99.

[2] = Pharmacokinetic study of co-crystal capsules in the dog model; type: in vivo; settings: for Systemic absorption in the dog model: at relevant doses (5 mg capsule); for AUC0-24h, Mean / Cmax, Mean / Tmax: capsule, 5 mg/dog, pentagastrin pre-treated fasted male dogs, crossover in 4 dogs
Protocol: The co-crystals were tested using the following formulations: • 1. Succinic Acid co-crystal capsule (5 mg dose)—Pentagastrin pre-treated, fasted dogs • 2. Citric Acid co-crystal capsule (5 mg dose)—Pentagastrin pre-treated, fasted dogs
The Study Design is as follows:
Crossover in 4 fasted male dogs (˜10 kg); dose 5 mg/dog; flush with 50 mL water; 2-week washout between treatments; 8 blood sample points per treatments.

Molecule | Dissolution in FaSSIF compared with the free form [1] | AUC (extent of dissolution), Mean [1] [µg·min/mL] | Dissolution Rate, Mean [1] [µg/mL/min] | Systemic absorption in the dog model [2] | AUC0-24h, Mean [2] [ng·h/mL] | Cmax, Mean [2] [ng/mL] | Tmax [2] [h]
4-(4-(((6-Methoxy-2-(2-methoxyimidazo[2,1-b][1,3,4]thiadiazol-6-yl)benzofuran-4-yl)oxy)methyl)thiazol-2-yl)-N,N-dimethylbenzamide: citric acid co-crystal (1:1), form N-1 [Example 2] | better than the free form | 988.900 | 0.584 | measurable systemic absorption | 161.61 | 29.28 | 2.0
4-(4-(((6-Methoxy-2-(2-methoxyimidazo[2,1-b][1,3,4]thiadiazol-6-yl)benzofuran-4-yl)oxy)methyl)thiazol-2-yl)-N,N-dimethylbenzamide: succinic acid co-crystal (1:0.5) [Example 1] | better than the free form | 272.622 | 0.144 | measurable systemic absorption | 93.97 | 12.22 | 1.5
COc1cc(OCc2csc(-c3ccc(C(=O)N(C)C)cc3)n2)c2cc(-c3cn4nc(OC)sc4n3)oc2c1 [Free form, 4-(4-(((6-Methoxy-2-(2-methoxyimidazo[2,1-b][1,3,4]thiadiazol-6-yl)benzofuran-4-yl)oxy)methyl)thiazol-2-yl)-N,N-dimethylbenzamide] |  | 0 | 0 |  |  |  | 
